Measured values published in patent US9738604B2, “Ethynylbenzene derivatives” (Duke University, priority 2010, dated 2017).
In brackets after ≈: the same amount, converted by molar mass. Read-outs that look alike come from different tables or passages of the source.

Columns and labels:
Assay type in all cases: cell-based
[1] = system: E. coli W3110; assay: microbe, parasite or virus in culture; details: for MIC: Escherichia coli, W3110, 22 h, read-out: MIC E. coli W3110
[2] = system: E. coli W3110RL; assay: microbe, parasite or virus in culture; details: for MIC: Escherichia coli, W3110RL, 22 h, read-out: MIC E. coli W3110RL; for MIC E. coli W3110RL: E. coli with lpxC of R. leguminosarum, 22 hours at 37° C., MTT
[3] = system: P. aeruginosa (PAO1); assay: MIC, P. aeruginosa; details: for MIC: Pseudomonas aeruginosa, read-out: MIC P. aeruginosa (PAO1)
[4] = system: E. coli W3110PA; assay: microbe, parasite or virus in culture; details: for MIC: Escherichia coli, W3110PA, 22 h, read-out: MIC E. coli W3110PA; for MIC E. coli W3110PA: E. coli with lpxC of P. aeruginosa, 22 hours at 37° C., MTT
[5] = P. aeruginosa PAO1, 22 hours at 37° C., MTT

Structure (SMILES) | MIC [1] [µg/mL] | MIC [2] [µg/mL] | MIC [3, 5] [µg/mL] | MIC [4] [µg/mL] | MIC ([3]; PAO1, 22 h) [µg/mL] | MIC E. coli W3110 [1] | MIC E. coli W3110RL [2] | MIC P. aeruginosa (PAO1) [3, 5] | MIC E. coli W3110PA [4] | MIC E. coli W3110 ([1]; wild-type E. coli W3110, 22 hours at 37° C., MTT)
O=C(NO)C(Cc1ccc2ccccc2c1)NS(=O)(=O)c1ccc2ccccc2c1 (stereo not shown) | 1 to 10 (≈ 2.38 to 23.8 µM) | > 100 | > 100 | > 100 | – | – | – | – | – | –
C[C@@H](O)[C@H](NC(=O)c1ccc(C#Cc2ccccc2)cc1)C(=O)NO | < 1 | > 100 | 1 to 10 (≈ 2.96 to 29.6 µM) | < 1 | – | – | – | – | – | –
CCCc1cc(C2=N[C@@H](C(=O)NO)CO2)cc(OC)c1OC | – | > 100 | – | > 100 | – | – | – | – | – | –
C[C@@H](O)[C@H](NC(=O)c1ccc(C#CC#CCN(C)C)cc1)C(=O)NO [CPD-007, 4-(5-(dimethylamino)penta-1,3-diynyl)-N-((2S,3R)-3-hydroxy-1-(hydroxyamino)-1-oxobutan-2-yl)benzamide] | 1 to 10 (≈ 2.91 to 29.1 µM) | > 100 | – | 1 to 10 (≈ 2.91 to 29.1 µM) | 1 to 10 (≈ 2.91 to 29.1 µM) | – | – | – | – | –
C[C@@H](O)[C@H](NC(=O)c1ccc(C#CC#Cc2ccccc2)cc1)C(=O)NO [CPD-009, N-((2S,3R)-3-hydroxy-1-(hydroxyamino)-1-oxobutan-2-yl)-4-(phenylbuta-1,3-diynyl)benzamide] | < 1 | 1 to 10 (≈ 2.76 to 27.6 µM) | – | < 1 | < 1 | – | – | – | – | –
Nc1ccc(C#CC#Cc2ccc(C(=O)N[C@@H](Cc3c[nH]cn3)C(=O)NO)cc2)cc1 [CPD-014, (2S)-2-({4′-[4′-(4′-aminophenyl)buta-1′,3′-diyn-1′-yl]phenyl}formamido)-N-hydroxy-3-(1′H-imidazol-4′-yl)propanamide] | – | – | – | – | – | A (key: A: <1 μg/mL; B: 1-10 μg/mL; C: 11-50 μg/mL; D: 51-100 μg/mL; E: >100 μg/mL) | E (>100 μg/mL) | B (1-10 μg/mL) | B (1-10 μg/mL) | –
Nc1cccc(C#CC#Cc2ccc(C(=O)N[C@@H](Cc3c[nH]cn3)C(=O)NO)cc2)c1 [CPD-015, (2S)-2-({4′-[4′-(3′-aminophenyl)buta-1′,3′-diyn-1′-yl]phenyl}formamido)-N-hydroxy-3-(1′H-imidazol-4′-yl)propanamide] | < 1 | > 100 | – | 51 to 100 (≈ 123 to 242 µM) | 1 to 10 (≈ 2.42 to 24.2 µM) | – | – | – | – | –
Nc1ccccc1C#CC#Cc1ccc(C(=O)N[C@@H](Cc2c[nH]cn2)C(=O)NO)cc1 [CPD-016, (2S)-2-({4′-[4′-(2′-aminophenyl)buta-1′,3′-diyn-1′-yl]phenyl}formamido)-N-hydroxy-3′-(1′H-imidazol-4′-yl)propanamide] | 1 to 10 (≈ 2.42 to 24.2 µM) | > 100 | – | 51 to 100 (≈ 123 to 242 µM) | > 100 | – | – | – | – | –
CC(C)(C)OC(=O)CC[C@H](NC(=O)c1ccc(C#CC#Cc2ccc(N)cc2)cc1)C(=O)NO [CPD-017, Tert-butyl (4S)-4-({4′-[4′-(4′-aminophenyl)buta-1′,3′-diyn-1′-yl]phenyl}formamido)-4-(hydroxycarbamoyl)butanoate] | – | – | – | – | – | C (key: A: <1 μg/mL; B: 1-10 μg/mL; C: 11-50 μg/mL; D: 51-100 μg/mL; E: >100 μg/mL) | E (>100 μg/mL) | E (>100 μg/mL) | E (>100 μg/mL) | –
Nc1ccc(C#CC#Cc2ccc(C(=O)N[C@@H](CCC(=O)O)C(=O)NO)cc2)cc1 [CPD-018, (4S)-4-({4′-[4′-(4′-aminophenyl)buta-1′,3′-diyn-1′-yl]phenyl}formamido)-4-(hydroxycarbamoyl)butanoic acid] | – | – | – | – | – | – | E (>100 μg/mL) | C (11-50 μg/mL) | D (51-100 μg/mL) | B (1-10 μg/mL)
Nc1ccc(C#CC#Cc2ccc(C(=O)N[C@@H](CC(=O)O)C(=O)NO)cc2)cc1 [CPD-019, (3S)-3-({4′-[4′-(4′-aminophenyl)buta-1′,3′-diyn-1′-yl]phenyl}formamido)-3-(hydroxycarbamoyl)propane acid] | – | – | – | – | – | D (key: A: <1 μg/mL; B: 1-10 μg/mL; C: 11-50 μg/mL; D: 51-100 μg/mL; E: >100 μg/mL) | E (>100 μg/mL) | E (>100 μg/mL) | E (>100 μg/mL) | –
C[C@H](NC(=O)c1ccc(C#CC#Cc2ccc(N)cc2)cc1)C(=O)NO [CPD-020, (2S)-2-({4′-[4′-(4′-aminophenyl)buta-1′,3′-diyn-1′-yl]phenyl}formamido)-N-hydroxypropanamide] | – | – | – | – | – | A (key: A: <1 μg/mL; B: 1-10 μg/mL; C: 11-50 μg/mL; D: 51-100 μg/mL; E: >100 μg/mL) | B (1-10 μg/mL) | C (11-50 μg/mL) | B (1-10 μg/mL) | –
